In US10100010B1, “4-methoxy pyrrole derivatives or salts thereof and pharmaceutical composition comprising the same” (Daewoong Pharmaceutical Co., Ltd., priority 2015, dated 2018):
Where a name gives a salt, the structure may show the parent alone. Read-outs that look alike come from different tables or passages of the source.

Key:
Format in all cases: cell-based
[1] = target: 5-HT2A (Homo sapiens, UniProt P28223); assay: GPCR Calcium Flux assay (FLIPR tetra, Eurofins), 5-HT2A; settings: for IC50: 8 concentrations 10 to 0.0006 uM, read-out: 50% inhibitory concentration (IC50) 5-HT2A; for inhibition at 10 µM: read-out: inhibition rate (%) 5-HT2A
Experimental: (§1) In order to confirm whether the compounds prepared in the above Examples act as an agonist or antagonist against GPCR Target, Calcium Flux assay was performed in an assay plate in which the compounds prepared in the Examples, vehicle controls, and reference compounds were added, using a Fluorometric imaging plate reader (FLIPR tetra) equipment.
(§2) Calcium Flux assay was evaluated by entrusting the GPCR profiler assay in Safety panel assays with Eurofins. By using the Fluo-8AM calcium dye, excitation was measured at a wavelength in the range of 470 to 495 nm and Emission was measured at a wavelength in the range of 515-575 nm. GPCR Assay Buffer for Calcium Flux assay was prepared by adding 20 mM of HEPES and 2.5 mM of Probenecid to Hanks Balanced Salt Solution (HBSS) to have pH 7.4. The Compounds of Examples for evaluation of the GPCR were diluted with DMSO at a concentration of 10 mM to make a stock and then prepared by diluting in the GPCR Assay Buffer at the concentration equivalent to three times the final concentration. First, for the evaluation of GPCRs, the inhibitory activity of the compounds of the Examples was evaluated at a single concentration of 10 uM, and then the respective selected targets were four fold-diluted from 10 uM to the low side to calculate 50% inhibitory concentration (IC50), prepared at the total 8 concentrations of 10, 2.5, 0.62, 0.15, 0.04, 0.01, 0.0024, 0.0006 uM, and Calcium Flux assay for GPCR was conducted. In order to evaluate the agonist and antagonist, % inhibition rate against GPCR activity before and after treatment of the compounds and the inhibitory activity of the compounds of the Examples were determined.
(§3) As a result, when the efficacy of […] and acetylcholine of the compounds prepared in the Examples was 100%, the inhibition rate (%) at a single concentration of 10 uM was evaluated and shown in Table 8.

[2] = target: T1, M1 (Homo sapiens, UniProt P11229); assay: GPCR Calcium Flux assay (FLIPR tetra, Eurofins), M1; settings: for inhibition at 10 µM: read-out: inhibition rate (%) M1; for IC50: 8 concentrations 10 to 0.0006 uM, read-out: 50% inhibitory concentration (IC50) M1
T1 sequence (P11229 1-460): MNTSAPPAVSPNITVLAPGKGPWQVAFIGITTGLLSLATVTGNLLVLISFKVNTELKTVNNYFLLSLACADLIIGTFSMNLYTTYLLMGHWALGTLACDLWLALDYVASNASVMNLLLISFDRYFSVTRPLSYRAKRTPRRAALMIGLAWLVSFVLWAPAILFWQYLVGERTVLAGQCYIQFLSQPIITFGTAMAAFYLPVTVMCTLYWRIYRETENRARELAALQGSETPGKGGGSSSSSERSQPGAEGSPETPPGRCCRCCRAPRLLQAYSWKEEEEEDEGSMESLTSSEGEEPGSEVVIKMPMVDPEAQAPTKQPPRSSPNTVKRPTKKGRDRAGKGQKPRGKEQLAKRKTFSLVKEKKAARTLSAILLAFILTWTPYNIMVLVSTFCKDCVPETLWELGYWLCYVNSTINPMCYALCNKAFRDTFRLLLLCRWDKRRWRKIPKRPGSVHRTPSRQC
Experimental: as §1, §2, §3

[3] = target: T2, M2 (Homo sapiens, UniProt P08172); assay: GPCR Calcium Flux assay (FLIPR tetra, Eurofins), M2; settings: for inhibition at 10 µM: read-out: inhibition rate (%) M2; for IC50: 8 concentrations 10 to 0.0006 uM, read-out: 50% inhibitory concentration (IC50) M2
T2 sequence (P08172 1-466): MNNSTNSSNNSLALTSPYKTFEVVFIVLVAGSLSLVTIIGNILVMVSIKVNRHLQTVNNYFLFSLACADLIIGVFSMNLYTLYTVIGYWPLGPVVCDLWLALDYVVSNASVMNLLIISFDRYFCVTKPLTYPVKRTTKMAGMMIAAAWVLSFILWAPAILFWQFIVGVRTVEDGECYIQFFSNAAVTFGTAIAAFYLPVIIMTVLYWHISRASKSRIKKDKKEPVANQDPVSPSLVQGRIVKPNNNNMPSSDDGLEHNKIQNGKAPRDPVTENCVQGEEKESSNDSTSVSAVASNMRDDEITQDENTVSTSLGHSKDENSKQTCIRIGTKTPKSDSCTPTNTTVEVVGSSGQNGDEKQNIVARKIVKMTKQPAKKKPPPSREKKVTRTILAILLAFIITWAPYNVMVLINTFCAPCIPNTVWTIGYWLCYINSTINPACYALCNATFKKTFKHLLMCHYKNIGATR
Experimental: as §1, §2, §3

Sequence of 5-HT2A (P28223 whole entry): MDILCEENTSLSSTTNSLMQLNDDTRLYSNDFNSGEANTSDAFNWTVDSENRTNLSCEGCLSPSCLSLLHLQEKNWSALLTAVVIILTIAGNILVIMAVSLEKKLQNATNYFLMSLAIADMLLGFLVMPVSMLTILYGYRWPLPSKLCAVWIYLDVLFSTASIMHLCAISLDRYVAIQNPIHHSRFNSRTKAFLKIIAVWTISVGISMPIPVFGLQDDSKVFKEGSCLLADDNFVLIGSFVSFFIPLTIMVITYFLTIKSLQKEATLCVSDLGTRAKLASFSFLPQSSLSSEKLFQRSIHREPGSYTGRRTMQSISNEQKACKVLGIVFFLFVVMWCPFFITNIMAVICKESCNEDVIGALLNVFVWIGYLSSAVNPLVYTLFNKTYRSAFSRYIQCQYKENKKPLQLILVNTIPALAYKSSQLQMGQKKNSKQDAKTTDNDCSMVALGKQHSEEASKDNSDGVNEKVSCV

SMILES	IC50 [1] [nM]	inhibition at 10 µM ([1]; single concentration of 10 uM) [%]	inhibition at 10 µM ([2]; single concentration of 10 uM) [%]	inhibition at 10 µM ([3]; single concentration of 10 uM) [%]	IC50 [2] [nM]	IC50 [3] [nM]	inhibition at 10 µM [1] [%]	inhibition at 10 µM [2] [%]	inhibition at 10 µM [3] [%]
CNCc1cn(S(=O)(=O)c2cccc(OC)c2)c(-c2cc(F)ccc2F)c1OC [Example 33, 1-(5-(2,5-difluorophenyl)-1-((3-methoxyphenyl)sulfonyl)-4-methoxy-1H-pyrrol-3-yl)-N-methylmethanamine hydrochloride]	1700	96.7	81.5	29	–	–	–	–	–
CNCc1cn(S(=O)(=O)c2cccc(OC)c2)c(-c2c(F)ccc(F)c2F)c1OC [Example 30, 1-(1-((3-methoxyphenyl)sulfonyl)-4-methoxy-5-(2,3,6-trifluorophenyl)-1H-pyrrol-3-yl)-N-methylmethanamine hydrochloride]	–	100	94.3	43	1400	–	–	–	–
CNCc1cn(S(=O)(=O)c2cccc(Cl)c2)c(-c2ccccc2F)c1OC [Example 1, 1-(5-(2-fluorophenyl)-4-methoxy-1-((3-chlorophenyl)sulfonyl)-1H-pyrrol-3-yl)-N-methylmethanamine hydrochloride]	250	96.4	99.6	66.5	1700	–	–	–	–
CNCc1cn(S(=O)(=O)c2cccc(F)c2)c(-c2c(F)cccc2Cl)c1OC [Example 20, 1-(5-(2-fluoro-6-chlorophenyl)-1-((3-fluorophenyl)sulfonyl)-4-methoxy-1H-pyrrol-3-yl)-N-methylmethanamine hydrochloride]	–	99.2	103	90.5	–	–	–	–	–
CNCc1cn(S(=O)(=O)c2cccc(OC(F)F)c2)c(-c2ccccc2F)c1OC [Example 4, 1-(5-(2-fluorophenyl)-4-methoxy-1-((3-difluoromethoxyphenyl)sulfonyl)-1H-pyrrol-3-yl)-N-methylmethanamine hydrochloride]	850	96	55.8	22	–	–	–	–	–
CNCc1cn(S(=O)(=O)c2cccc(OC)c2)c(-c2ccccc2F)c1OC [Example 3, 1-(5-(2-fluorophenyl)-4-methoxy-1-((3-methoxyphenyl)sulfonyl)-1H-pyrrol-3-yl)-N-methylmethanamine hydrochloride]	180	94	87	76.9	–	–	–	–	–
CNCc1cn(S(=O)(=O)c2cccc(OC)c2)c(-c2ccc(F)cc2F)c1OC [Example 11, 1-(5-(2,4-difluorophenyl)-1-((3-methoxyphenyl)sulfonyl)-4-methoxy-1H-pyrrol-3-yl)-N-methylmethanamine hydrochloride]	200	102	97.2	79.4	1800	–	–	–	–
CNCc1cn(S(=O)(=O)c2cccc(F)c2)c(-c2c(F)cccc2F)c1OC [Example 13, 1-(5-(2,6-difluorophenyl)-1-((3-fluorophenyl)sulfonyl)-4-methoxy-1H-pyrrol-3-yl)-N-methylmethanamine hydrochloride]	76	102	100	99.4	110	510	–	–	–
CNCc1cn(S(=O)(=O)c2cccc(C)c2)c(-c2c(F)cccc2F)c1OC [Example 16, 1-(5-(2,6-difluorophenyl)-1-((3-methylphenyl)sulfonyl)-4-methoxy-1H-pyrrol-3-yl)-N-methylmethanamine fumarate]	58	–	–	–	1900	–	102	95.4	69.7
CNCc1cn(S(=O)(=O)c2cccc(OC(F)F)c2)c(-c2ccc(F)cc2F)c1OC [Example 12, 1-(5-(2,4-difluorophenyl)-1-((3-difluoromethoxyphenyl)sulfonyl)-4-methoxy-1H-pyrrol-3-yl)-N-methylmethanamine hydrochloride]	–	101	93.1	28.7	–	–	–	–	–
CNCc1cn(S(=O)(=O)c2cccc(C(F)(F)F)c2)c(-c2c(F)ccc(F)c2F)c1OC [Example 29, 1-(1-((3-trifluoromethylphenyl)sulfonyl)-4-methoxy-5-(2,3,6-trifluorophenyl)-1H-pyrrol-3-yl)-N-methylmethanamine hydrochloride]	–	35.7	68.4	19.4	–	–	–	–	–
CNCc1cn(S(=O)(=O)c2cccc(C(F)(F)F)c2)c(-c2c(F)cc(F)cc2F)c1OC [Example 24, 1-(1-((3-trifluoromethylphenyl)sulfonyl)-4-methoxy-5-(2,4,6-trifluorophenyl)-1H-pyrrol-3-yl)-N-methylmethanamine hydrochloride]	62	62.2	93.4	22	> 1000	> 10000	–	–	–
CNCc1cn(S(=O)(=O)c2cccc(F)c2)c(-c2cc(F)ccc2F)c1OC [Example 31, 1-(5-(2,5-difluorophenyl)-1-((3-fluorophenyl)sulfonyl)-4-methoxy-1H-pyrrol-3-yl)-N-methylmethanamine hydrochloride]	42	101	100	98.6	73	–	–	–	–
CNCc1cn(S(=O)(=O)c2cccc(OC)c2)c(-c2c(F)cccc2F)c1OC [Example 17, 1-(5-(2,6-difluorophenyl)-1-((3-methoxyphenyl)sulfonyl)-4-methoxy-1H-pyrrol-3-yl)-N-methylmethanamine hydrochloride]	2200	102	85.2	60.1	–	–	–	–	–
CNCc1cn(S(=O)(=O)c2ccc(F)c(Cl)c2)c(-c2c(F)cccc2F)c1OC [Example 18, 1-(5-(2,6-difluorophenyl)-1-((3-chloro-4-fluorophenyl)sulfonyl)-4-methoxy-1H-pyrrol-3-yl)-N-methylmethanamine hydrochloride]	210	98.1	91.2	42.1	~2100	–	–	–	–
CNCc1cn(S(=O)(=O)c2cccc(Cl)c2)c(-c2c(F)ccc(F)c2F)c1OC [Example 28, 1-(1-((3-chlorophenyl)sulfonyl)-4-methoxy-5-(2,3,6-trifluorophenyl)-1H-pyrrol-3-yl)-N-methylmethanamine hydrochloride]	67	97.6	99.4	61.9	550	–	–	–	–
CNCc1cn(S(=O)(=O)c2cccc(C(F)(F)F)c2)c(-c2ccc(Cl)cc2F)c1OC [Example 7, 1-(5-(2-fluoro-4-chlorophenyl)-4-methoxy-1-((3-(trifluoromethyl)phenyl)sulfonyl)-1H-pyrrol-3-yl)-N-methylmethanamine hydrochloride]	–	42.3	65.6	0.8	–	–	–	–	–
